# From patent publication US9073874B2, “Cyclic N,N′-diarylthioureas and N,N′-diarylureas-androgen receptor antagonists, anticancer agent, method for preparation and use thereof” (priority 2010, dated 2015)
# Columns and labels:
# A1 (h) = A1 (h) (Homo sapiens, UniProt P30542); experiment: competitive radioligand binding assay, A1 (h) (antagonist radioligand)
# A2A (h) = A2A (h) (Homo sapiens, UniProt P29274); experiment: competitive radioligand binding assay, A2A (h) (agonist radioligand)
# a2 (non-selective) = experiment: competitive radioligand binding assay, a2 (non-selective) (antagonist radioligand); details: 10 μM
# AT2 (h) = AT2 (h) (Homo sapiens, UniProt P50052); experiment: competitive radioligand binding assay, AT2 (h) (agonist radioligand)
# BZD (central) = experiment: competitive radioligand binding assay, BZD (central) (agonist radioligand); details: 10 μM
# B1 (h) = B1 (h) (Homo sapiens, UniProt P46663); experiment: competitive radioligand binding assay, B1 (h) (agonist radioligand)
# B2 (h) = B2 (h) (Homo sapiens, UniProt P30411); experiment: competitive radioligand binding assay, B2 (h) (agonist radioligand)
# CRF1 (h) = CRF1 (h) (Homo sapiens, UniProt P34998); experiment: competitive radioligand binding assay, CRF1 (h) (agonist radioligand)
# D1 (h) = D1 (h) (Homo sapiens, UniProt P21728); experiment: competitive radioligand binding assay, D1 (h) (antagonist radioligand)
# D2S (h) = D2S (h) (Homo sapiens, UniProt P14416); experiment: competitive radioligand binding assay, D2S (h) (antagonist radioligand)
# [1] = tested on: T1, GABA (non-selective) receptors; type: binding
# T1 construct: other: 10 μM; GABA (non-selective) (agonist radioligand); activity towards GABA (non-selective) receptors (in words)
# NMDA = experiment: competitive radioligand binding assay, NMDA (antagonist radioligand); details: 10 μM
# H2 (h) = H2 (h) (Homo sapiens, UniProt P25021); experiment: competitive radioligand binding assay, H2 (h) (antagonist radioligand)
# H3 (h) = H3 (h) (Homo sapiens, UniProt Q9Y5N1); experiment: competitive radioligand binding assay, H3 (h) (agonist radioligand)
# CysLT1 (LTD4) (h) = CysLT1 (LTD4) (h) (Homo sapiens, UniProt Q9Y271); experiment: competitive radioligand binding assay, CysLT1 (LTD4) (h) (agonist radioligand)
# M (non0selective) = experiment: competitive radioligand binding assay, M (non0selective) (antagonist radioligand); details: 10 μM
# NK1 (h) = NK1 (h) (Homo sapiens, UniProt P25103); experiment: competitive radioligand binding assay, NK1 (h) (agonist radioligand)
# NK2 (h) = NK2 (h) (Homo sapiens, UniProt P21452); experiment: competitive radioligand binding assay, NK2 (h) (agonist radioligand)
# Y (non-selective) = experiment: competitive radioligand binding assay, Y (non-selective) (agonist radioligand); details: 10 μM
# opioid (non-selective) = experiment: competitive radioligand binding assay, opioid (non-selective) (antagonist radioligand); details: 10 μM
# EP2 (h) = EP2 (h) (Homo sapiens, UniProt P43116); experiment: competitive radioligand binding assay, EP2 (h) (agonist radioligand)
# P2Y = experiment: competitive radioligand binding assay, P2Y (agonist radioligand); details: 10 μM
# 5-HT (non-selective) = experiment: competitive radioligand binding assay, 5-HT (non-selective) (agonist radioligand); details: 10 μM
# [2] = tested on: sigma (non-selective) (h); experiment: competitive radioligand binding assay, sigma (non-selective) (h) (agonist radioligand); set-up: species or system human; details: 10 μM
# V2 (h) = V2 (h) (Homo sapiens, UniProt P30518); experiment: competitive radioligand binding assay, V2 (h) (agonist radioligand)
# [3] = tested on: Ca2+channel (L, verapamil site) (phenylalkylamine); experiment: competitive radioligand binding assay, Ca2+channel (L, verapamil site) (phenylalkylamine) (antagonist radioligand); details: 10 μM
# KV channel = experiment: competitive radioligand binding assay, KV channel (antagonist radioligand); details: 10 μM
# SKCa channel = experiment: competitive radioligand binding assay, SKCa channel (antagonist radioligand); details: 10 μM
# [4] = target: norepinephrine transporter (h) (Homo sapiens, UniProt P23975); experiment: competitive radioligand binding assay, norepinephrine transporter (h) (antagonist radioligand)
# GABA transporter = experiment: competitive radioligand binding assay, GABA transporter (antagonist radioligand); details: 10 μM
# 5-HT transporter (h) = 5-HT transporter (h) (Homo sapiens, UniProt P31645); experiment: competitive radioligand binding assay, 5-HT transporter (h) (antagonist radioligand)
# [5] = Maximum tolerated dose, peroral once a day for 5 days in CD1 male mice; type: in vivo
# Experimental: The maximum tolerated doses (MTD) of novel antagonists (R)-1 and their analog Ia were determined in experiments on CD1 male mice at peroral administration once a day for 5 days in doses of 10, 30, and 100 mg/kg. The compound was dissolved in sterile water with addition of Tween 80. Sterile water with Tween 80 was given to control animals (Placebo group). Animals' body weight and mortality rate were estimated. Statistical comparison of groups was carried out according to a non-parametric ANOVA test using Statistica software.
# LnCAP-Z2 tumors = experiment: Prostate cancer xenograft model, SCID male mice bearing LnCAP-Z2 tumors; type: in vivo; details: for antitumor efficacy (in words): oral
# Experimental: SCID male mice bearing LnCAP-Z2 tumors (mean volume˜160-190 mm^3) were treated daily by oral gavage with vehicle or drugs for 21 days. Individual tumor volume change by the end of the study. Percentage of change in individual tumor volumes as compared to the start of treatment.
# FIG. 6. […] SCID male mice bearing LnCAP-Z2 tumors (mean volume˜160-190 mm^3) treated daily by oral gavage with vehicle or drugs for 21 days. Individual tumor volume change by the end of the study. Percentage of change in individual tumor volumes compared to the start of treatment.
# FIG. 7. […] SCID male mice bearing LnCAP-Z2 tumors (mean volume˜160-190 mm^3) treated daily by oral gavage with vehicle or drugs for 21 days. (A)—Tumor weight by the end of the study. Mean±SEM are presented. […] (B)—PSA expression by the end of the study. Plasma samples were collected 24 hours after the last drug administration. Mean±SEM are presented.
# The antitumor efficacy of (R)-1 was tested in a xenograft model of prostate cancer (FIGS. 6 and 7). Male immunodeficient mice harboring LnCAP-Z2 tumors were treated orally for 21 days with either vehicle or (R)-1 at 20 and 50 mg/kg once daily and at 20 mg/kg twice daily. […] Twenty-four hours after last treatment, blood samples were collected from all animals and used for measuring PSA expression and drug concentration. In addition, the concentration of drugs and Ki67 expression were measured in tumor samples.
# norepinephrine transporter (h), sequence (P23975 whole entry): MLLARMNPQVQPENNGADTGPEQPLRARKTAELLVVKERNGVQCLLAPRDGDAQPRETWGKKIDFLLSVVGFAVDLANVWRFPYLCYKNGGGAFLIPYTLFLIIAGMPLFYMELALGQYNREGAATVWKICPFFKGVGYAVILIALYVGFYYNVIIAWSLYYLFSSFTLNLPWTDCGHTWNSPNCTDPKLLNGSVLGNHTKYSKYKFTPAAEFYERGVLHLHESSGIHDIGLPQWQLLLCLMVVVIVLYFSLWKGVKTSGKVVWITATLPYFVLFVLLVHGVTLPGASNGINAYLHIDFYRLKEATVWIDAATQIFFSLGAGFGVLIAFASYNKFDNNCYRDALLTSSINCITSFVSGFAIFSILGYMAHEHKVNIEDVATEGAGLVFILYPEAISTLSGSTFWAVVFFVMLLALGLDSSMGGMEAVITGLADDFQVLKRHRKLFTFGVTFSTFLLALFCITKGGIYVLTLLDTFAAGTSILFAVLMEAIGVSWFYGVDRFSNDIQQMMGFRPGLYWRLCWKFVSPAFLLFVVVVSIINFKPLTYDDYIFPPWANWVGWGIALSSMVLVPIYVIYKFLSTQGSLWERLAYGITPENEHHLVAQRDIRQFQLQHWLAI
# NK1 (h), sequence (P25103 whole entry): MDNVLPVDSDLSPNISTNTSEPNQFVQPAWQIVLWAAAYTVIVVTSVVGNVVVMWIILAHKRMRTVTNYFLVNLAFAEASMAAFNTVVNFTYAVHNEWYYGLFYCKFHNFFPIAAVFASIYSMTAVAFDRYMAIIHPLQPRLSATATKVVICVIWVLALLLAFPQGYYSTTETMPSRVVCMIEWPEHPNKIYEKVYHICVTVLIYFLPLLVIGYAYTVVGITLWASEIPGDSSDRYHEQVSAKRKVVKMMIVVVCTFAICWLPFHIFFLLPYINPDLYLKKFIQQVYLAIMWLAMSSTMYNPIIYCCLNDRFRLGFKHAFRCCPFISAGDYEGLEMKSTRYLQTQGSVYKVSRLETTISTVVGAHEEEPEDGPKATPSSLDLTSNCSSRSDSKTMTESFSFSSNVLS
# EP2 (h), sequence (P43116 whole entry): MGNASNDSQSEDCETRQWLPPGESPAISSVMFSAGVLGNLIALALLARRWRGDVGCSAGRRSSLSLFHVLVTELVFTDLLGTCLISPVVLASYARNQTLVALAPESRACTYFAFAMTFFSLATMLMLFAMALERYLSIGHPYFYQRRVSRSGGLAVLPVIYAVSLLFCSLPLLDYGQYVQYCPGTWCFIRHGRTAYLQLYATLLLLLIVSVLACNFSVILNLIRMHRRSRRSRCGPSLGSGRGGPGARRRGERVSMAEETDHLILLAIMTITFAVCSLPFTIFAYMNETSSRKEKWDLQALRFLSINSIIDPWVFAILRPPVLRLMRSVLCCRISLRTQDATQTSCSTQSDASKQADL
# A2A (h), sequence (P29274 whole entry): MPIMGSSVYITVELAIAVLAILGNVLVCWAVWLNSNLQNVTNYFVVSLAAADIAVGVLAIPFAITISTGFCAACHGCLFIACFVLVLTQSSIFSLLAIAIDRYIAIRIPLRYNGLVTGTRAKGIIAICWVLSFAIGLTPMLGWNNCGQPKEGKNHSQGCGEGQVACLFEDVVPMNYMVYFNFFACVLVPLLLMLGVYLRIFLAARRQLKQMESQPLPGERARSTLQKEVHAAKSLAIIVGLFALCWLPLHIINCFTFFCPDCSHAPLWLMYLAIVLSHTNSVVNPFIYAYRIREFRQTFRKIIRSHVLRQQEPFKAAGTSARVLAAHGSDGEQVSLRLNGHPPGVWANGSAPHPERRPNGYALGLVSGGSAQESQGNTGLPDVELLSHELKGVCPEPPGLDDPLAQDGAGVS
# H3 (h), sequence (Q9Y5N1 whole entry): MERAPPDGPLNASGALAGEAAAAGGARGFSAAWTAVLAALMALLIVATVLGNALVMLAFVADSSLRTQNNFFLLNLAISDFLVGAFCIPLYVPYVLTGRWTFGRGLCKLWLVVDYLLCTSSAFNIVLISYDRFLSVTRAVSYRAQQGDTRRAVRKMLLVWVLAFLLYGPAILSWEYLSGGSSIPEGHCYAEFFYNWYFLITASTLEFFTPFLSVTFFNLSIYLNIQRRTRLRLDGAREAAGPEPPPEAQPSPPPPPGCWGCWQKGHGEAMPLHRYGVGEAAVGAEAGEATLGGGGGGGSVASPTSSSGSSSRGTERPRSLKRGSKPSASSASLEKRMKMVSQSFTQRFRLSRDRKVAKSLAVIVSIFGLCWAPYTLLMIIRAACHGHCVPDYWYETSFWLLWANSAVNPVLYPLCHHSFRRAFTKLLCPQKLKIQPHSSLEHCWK
# H2 (h), sequence (P25021 whole entry): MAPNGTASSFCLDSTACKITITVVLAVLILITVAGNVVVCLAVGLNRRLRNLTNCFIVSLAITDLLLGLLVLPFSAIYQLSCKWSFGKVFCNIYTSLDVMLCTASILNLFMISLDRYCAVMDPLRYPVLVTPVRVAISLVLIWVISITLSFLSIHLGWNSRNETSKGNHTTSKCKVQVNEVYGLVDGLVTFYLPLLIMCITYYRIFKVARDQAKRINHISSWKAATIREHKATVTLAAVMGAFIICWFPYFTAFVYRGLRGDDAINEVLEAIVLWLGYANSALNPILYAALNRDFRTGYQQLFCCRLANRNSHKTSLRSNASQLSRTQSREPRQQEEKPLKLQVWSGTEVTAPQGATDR
# A1 (h), sequence (P30542 whole entry): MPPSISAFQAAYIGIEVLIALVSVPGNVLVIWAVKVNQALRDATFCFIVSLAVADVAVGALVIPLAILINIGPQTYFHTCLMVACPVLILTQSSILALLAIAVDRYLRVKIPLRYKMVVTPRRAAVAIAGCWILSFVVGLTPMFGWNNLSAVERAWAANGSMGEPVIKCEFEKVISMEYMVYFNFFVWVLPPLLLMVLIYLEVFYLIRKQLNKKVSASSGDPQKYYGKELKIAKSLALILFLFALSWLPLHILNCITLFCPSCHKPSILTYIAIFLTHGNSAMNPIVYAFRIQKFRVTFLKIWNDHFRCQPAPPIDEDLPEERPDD
# NK2 (h), sequence (P21452 whole entry): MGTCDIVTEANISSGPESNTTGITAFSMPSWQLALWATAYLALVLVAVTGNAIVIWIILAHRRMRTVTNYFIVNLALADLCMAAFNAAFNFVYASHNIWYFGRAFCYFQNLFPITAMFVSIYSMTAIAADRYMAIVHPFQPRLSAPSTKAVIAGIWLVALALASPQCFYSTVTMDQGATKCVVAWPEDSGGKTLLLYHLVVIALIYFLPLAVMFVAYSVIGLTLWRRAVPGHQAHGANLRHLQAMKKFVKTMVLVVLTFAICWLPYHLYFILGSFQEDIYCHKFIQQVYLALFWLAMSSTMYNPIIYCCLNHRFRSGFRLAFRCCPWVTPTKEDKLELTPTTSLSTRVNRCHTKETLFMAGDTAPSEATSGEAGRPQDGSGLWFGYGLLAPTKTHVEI
# 5-HT transporter (h), sequence (P31645 whole entry): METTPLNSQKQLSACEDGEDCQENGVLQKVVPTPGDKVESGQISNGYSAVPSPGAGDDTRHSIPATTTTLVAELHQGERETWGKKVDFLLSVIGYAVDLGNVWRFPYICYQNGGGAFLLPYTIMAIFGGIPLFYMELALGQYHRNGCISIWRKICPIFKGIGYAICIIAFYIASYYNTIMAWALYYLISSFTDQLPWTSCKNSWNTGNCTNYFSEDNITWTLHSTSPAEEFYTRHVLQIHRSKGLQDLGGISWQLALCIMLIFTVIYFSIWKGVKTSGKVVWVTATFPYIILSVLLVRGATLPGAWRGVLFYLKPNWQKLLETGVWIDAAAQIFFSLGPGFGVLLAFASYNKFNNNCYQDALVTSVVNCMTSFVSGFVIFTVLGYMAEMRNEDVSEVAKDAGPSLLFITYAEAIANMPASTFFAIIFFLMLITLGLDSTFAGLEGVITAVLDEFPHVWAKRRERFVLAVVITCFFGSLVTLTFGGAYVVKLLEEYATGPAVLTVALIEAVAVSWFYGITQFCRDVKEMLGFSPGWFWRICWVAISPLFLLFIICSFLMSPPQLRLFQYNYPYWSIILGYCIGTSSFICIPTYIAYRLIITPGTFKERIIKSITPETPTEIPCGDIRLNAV
# V2 (h), sequence (P30518 whole entry): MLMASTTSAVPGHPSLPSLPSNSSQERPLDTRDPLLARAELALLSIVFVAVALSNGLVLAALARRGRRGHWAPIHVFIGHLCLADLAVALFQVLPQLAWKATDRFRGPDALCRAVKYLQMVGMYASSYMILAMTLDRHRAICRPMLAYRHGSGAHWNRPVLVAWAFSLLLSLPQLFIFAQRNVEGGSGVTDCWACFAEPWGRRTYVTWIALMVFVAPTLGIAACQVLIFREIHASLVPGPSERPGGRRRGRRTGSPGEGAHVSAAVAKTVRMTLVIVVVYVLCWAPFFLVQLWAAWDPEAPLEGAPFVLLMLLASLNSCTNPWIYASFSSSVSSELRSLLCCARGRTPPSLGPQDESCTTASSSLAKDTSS
# CRF1 (h), sequence (P34998 24-415): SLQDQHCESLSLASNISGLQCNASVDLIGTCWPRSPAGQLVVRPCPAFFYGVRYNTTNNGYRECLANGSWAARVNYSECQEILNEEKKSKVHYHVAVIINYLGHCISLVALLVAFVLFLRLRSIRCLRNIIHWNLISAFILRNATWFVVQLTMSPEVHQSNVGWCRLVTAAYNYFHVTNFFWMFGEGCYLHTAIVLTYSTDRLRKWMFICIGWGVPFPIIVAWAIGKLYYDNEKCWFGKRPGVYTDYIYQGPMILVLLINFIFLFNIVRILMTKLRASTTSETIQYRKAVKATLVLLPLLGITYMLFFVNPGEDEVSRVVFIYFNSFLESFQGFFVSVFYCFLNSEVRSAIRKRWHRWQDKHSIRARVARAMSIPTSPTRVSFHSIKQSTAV
compound,measurement,setting,value
"CNC(=O)c1ccc(N2C(=S)N(c3ccc(C#N)c(C(F)(F)F)c3)C(=O)[C@]23CCOC3)cc1F [(R)-1, 4-[(R)-3-(4-cyano-3-trifluoromethyl-phenyl)-4-oxo-2-thioxo-7-oxa-1,3-diaza-spiro[4.4]non-1-yl]-2-fluoro-N-methyl-benzamide]",inhibition at 10 µM,A1 (h),-11.8%
same,inhibition at 10 µM,A2A (h),8.1%
same,% Inhibition,a2 (non-selective),−3.7%
same,inhibition at 10 µM,AT2 (h),-6.2%
same,% Inhibition,BZD (central),−16.6%
same,inhibition at 10 µM,B1 (h),0.5%
same,inhibition at 10 µM,B2 (h),-5.2%
same,inhibition at 10 µM,CRF1 (h),-0.1%
same,inhibition at 10 µM,D1 (h),-2.4%
same,inhibition at 10 µM,D2S (h),-8.1%
same,% Inhibition,"[1]; 10 μM, GABA (non-selective) (agonist radioligand)",7.1%
same,activity towards GABA (non-selective) receptors (in words),"[1]; Table 1, Target 24",practically inactive
same,% Inhibition,NMDA,2.0%
same,inhibition at 10 µM,H2 (h),-2.6%
same,inhibition at 10 µM,H3 (h),-13%
same,inhibition at 10 µM,CysLT1 (LTD4) (h),-13.9%
same,% Inhibition,M (non0selective),−8.9%
same,inhibition at 10 µM,NK1 (h),14.7%
same,inhibition at 10 µM,NK2 (h),-8.7%
same,% Inhibition,Y (non-selective),−16.4%
same,% Inhibition,opioid (non-selective),19.3%
same,inhibition at 10 µM,EP2 (h),0%
same,% Inhibition,P2Y,33.3%
same,% Inhibition,5-HT (non-selective),−8.2%
same,% Inhibition,[2],9.8%
same,inhibition at 10 µM,V2 (h),1.5%
same,% Inhibition,[3],4.0%
same,% Inhibition,KV channel,−10.1%
same,% Inhibition,SKCa channel,−4.8%
same,inhibition at 10 µM,[4],-1.1%
same,% Inhibition,GABA transporter,9.7%
same,inhibition at 10 µM,5-HT transporter (h),43.5%
same,MTD at 5 days,"[5]; CD1, mouse, in vivo, oral, male CD-1 mice, peroral once a day for 5 days",> 100 mg/kg
same,body weight versus control animals (Placebo group),"[5]; CD1 male mice, peroral, 100 mg/kg",no statistical significance was observed
same,mortality,"[5]; CD1 male mice, peroral, doses below 100 mg/kg (10 and 30 mg/kg)",did not lead to death
same,toxicity compared with the (Ia) antagonist,"[5]; male CD-1 mice, from MTD",more than three times less toxic
same,tumors regressed,"LnCAP-Z2 tumors; 20 mg/kg twice daily, oral gavage, 21 days",4 of 8
same,effect on individual tumors (in words),"LnCAP-Z2 tumors; analysis of individual tumors, 21 days oral",stimulate tumor regression
same,antitumor efficacy (in words),"LnCAP-Z2 tumors; once daily at 20 or 50 mg/kg, 21 days",comparable with Ia administered once daily at 10 mg/kg
same,antitumor efficacy (in words),"LnCAP-Z2 tumors; twice daily at 20 mg/kg, 21 days",highest antitumor efficacy
